Measurements published in the NIST ThermoML archive (doi:10.1016/j.jct.2006.10.017).
Numbers after ± are expanded uncertainties.

Legend:
[1] = refractive index (Na D-line) (dimensionless); details: 101.33 kPa, Liquid
[2] = 101 kPa, Liquid

CCCCn1cc[n+](C)c1.F[P-](F)(F)(F)(F)F [1-butyl-3-methylimidazolium hexafluorophosphate]
refractive index ([1]; 293.15 K): 1.41069 ± 0.0013 | refractive index ([1]; 298.15 K): 1.40937 ± 0.0013 | refractive index ([1]; 303.15 K): 1.40808 ± 0.0013 | mass density ([2]; 293.15 K): 1371.6 ± 2.9 kg/m3 | speed of sound ([2]; 293.15 K): 1455 ± 12 m/s | mass density ([2]; 298.15 K): 1367.3 ± 2.9 kg/m3 | speed of sound ([2]; 298.15 K): 1443 ± 12 m/s | mass density ([2]; 303.15 K): 1363 ± 2.9 kg/m3 | speed of sound ([2]; 303.15 K): 1431 ± 12 m/s

CCCCn1cc[n+](C)c1.COS(=O)(=O)[O-] [1-butyl-3-methylimidazolium methyl sulfate]
refractive index ([1]; 293.15 K): 1.48077 ± 0.0013 | refractive index ([1]; 298.15 K): 1.47942 ± 0.0013 | refractive index ([1]; 303.15 K): 1.47806 ± 0.0013 | mass density ([2]; 293.15 K): 1215.6 ± 2.1 kg/m3 | speed of sound ([2]; 293.15 K): 1671 ± 13 m/s | mass density ([2]; 298.15 K): 1212.2 ± 2.1 kg/m3 | speed of sound ([2]; 298.15 K): 1658 ± 13 m/s | mass density ([2]; 303.15 K): 1208.8 ± 2.1 kg/m3 | speed of sound ([2]; 303.15 K): 1645 ± 13 m/s

COS(=O)(=O)[O-].Cn1cc[n+](C)c1 [1,3-dimethylimidazolium methylsulfate]
refractive index ([1]; 293.15 K): 1.48392 ± 0.0013 | refractive index ([1]; 298.15 K): 1.4827 ± 0.0013 | refractive index ([1]; 303.15 K): 1.48129 ± 0.0013 | mass density ([2]; 293.15 K): 1330.9 ± 2.7 kg/m3 | speed of sound ([2]; 293.15 K): 1826 ± 14 m/s | mass density ([2]; 298.15 K): 1327.2 ± 2.7 kg/m3 | speed of sound ([2]; 298.15 K): 1813 ± 14 m/s | mass density ([2]; 303.15 K): 1323.7 ± 2.7 kg/m3 | speed of sound ([2]; 303.15 K): 1801 ± 14 m/s

CCO [ethanol]
refractive index ([1]; 293.15 K): 1.36138 ± 0.0013 | refractive index ([1]; 298.15 K): 1.35929 ± 0.0013 | refractive index ([1]; 303.15 K): 1.35725 ± 0.0013 | mass density ([2]; 293.15 K): 789.3 ± 0.9 kg/m3 | speed of sound ([2]; 293.15 K): 1160 ± 10 m/s | mass density ([2]; 298.15 K): 785.1 ± 0.9 kg/m3 | speed of sound ([2]; 298.15 K): 1143 ± 10 m/s | mass density ([2]; 303.15 K): 780.7 ± 0.9 kg/m3 | speed of sound ([2]; 303.15 K): 1127 ± 9 m/s
